This passage reports Caco-2 and IC50 results from patent publication US20240390340A1 (INCYTE CORPORATION, priority 2023, published 2024).

The test system of data set [1] is Caco-2 cells. The data set can be described thus: Caco2 assay (Papp A-B). The class given is in vitro ADME. The following applies: test compound 50 μM, 120 min, 37° C. The method, then: Caco-2 cells are grown at 37° C. in an atmosphere of 5% CO2 in DMEM growth medium supplemented with 10% (v/v) fetal bovine serum, 1% (v/v) nonessential amino acids, penicillin (100 U/mL), and streptomycin (100 μg/mL). Confluent cell monolayers are subcultured every 7 days or 4 days for Caco-2 by treatment with 0.05% trypsin containing […]. Caco-2 cells are seeded in 96-well Transwell plates. The seeding density for Caco-2 cells is 14,000 cells/well. DMEM growth medium is replaced every other day after seeding. Cell monolayers are used for transport assays between 22 and 25 days for Caco-2 cells.
Cell culture medium is removed and replaced with HBSS. To measure the TEER, the HBSS is added into the donor compartment (apical side) and receiver compartment (basolateral side). The TEER is measured by using a REMS Autosampler to ensure the integrity of the cell monolayers. Caco-2 cell monolayers with TEER values 300 Ω·cm^2 are used for transport experiments. To determine the Papp in the absorptive direction (A-B), solution of test compound (50 μM) in HBSS is added to the donor compartment (apical side), while HBSS solution with 4% BSA is added to the receiver compartment (basolateral side). The apical volume was 0.075 mL, and the basolateral volume is 0.25 mL. The incubation period is 120 min. at 37° C. in an atmosphere of 5% CO2. At the end of the incubation period, samples from the donor and receiver sides are removed and an equal volume of MeCN is added for protein precipitation. The supernatants are collected after centrifugation (3000 rpm, Allegra X-14R Centrifuge from Beckman Coulter, Indianapolis, IN) for LCMS analysis. The permeability value is determined according to the equation:
[formula] • where the flux rate (F, mass/time) is calculated from the slope of cumulative amounts of compound of interest on the receiver side, SA is the surface area of the cell membrane, VD is the donor volume, and MD is the initial amount of the solution in the donor chamber.
The symbol “+” indicates a Caco-2 value of ≤0.5, “++” indicates a Caco-2 value of >0.5 but ≤1; and “+++” indicates a Caco-2 value of >1. “NA” indicates IC50 not available.

The target of data set [2] is KRAS G12V (Homo sapiens, UniProt P01116, G12V). Put plainly: GDP-GTP exchange assay (bodipy-GDP/GppNHp, SOS1), KRAS G12V. The class given is biochemical.
In data set [3] the target is KRAS G12D (Homo sapiens, UniProt P01116, G12D). The data set can be described thus: GDP-GTP exchange assay (bodipy-GDP/GppNHp, SOS1), KRAS G12D. Type of data set: biochemical.
[4] abbreviates: KRAS G12V mutant, value for the most potent isomer quoted for certain compounds, read-out: G12V (KRAS G12V exchange assay IC50).
Setting [5] is: bodipy-loaded KRAS G12D 2.5 nM, 4 h pre-incubation, value for the most potent isomer quoted for certain compounds, read-out: G12D (KRAS G12D exchange assay IC50).

Like-named read-outs stand apart in the source and are kept apart here. Some results are limits rather than exact numbers.

Sequence of KRAS G12D (P01116 1-188 isoform P01116-2 G12D): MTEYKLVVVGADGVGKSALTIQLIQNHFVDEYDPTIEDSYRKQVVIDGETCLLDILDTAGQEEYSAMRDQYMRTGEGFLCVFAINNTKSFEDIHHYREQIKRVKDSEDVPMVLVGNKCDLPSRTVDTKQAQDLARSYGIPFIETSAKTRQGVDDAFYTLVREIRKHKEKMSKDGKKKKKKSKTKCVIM
Sequence of KRAS G12V (P01116 1-188 isoform P01116-2 G12V): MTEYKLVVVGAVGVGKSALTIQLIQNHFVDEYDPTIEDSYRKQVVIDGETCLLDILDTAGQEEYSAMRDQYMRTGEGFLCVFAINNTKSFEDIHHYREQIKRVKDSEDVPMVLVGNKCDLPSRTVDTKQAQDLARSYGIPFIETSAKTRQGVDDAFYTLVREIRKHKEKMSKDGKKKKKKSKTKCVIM

As to `[2H]C([2H])([2H])O[C@H]1CC[C@@H]1O[C@H]1C[C@H](c2cc3c(C)nc4c(F)c(-c5cccc(Cl)c5Cl)c(CCC#N)cc4c3n2[C@H]2[C@H]3CN[C@@H]2C3)N(C(=O)C2CC2)C1` (stereo in doubt) [Example 80, trans-3-(1-((1R,4R,5S)-2-Azabicyclo[2.1.1]hexan-5-yl)-2-((2R,4S)-1-(cyclopropanecarbonyl)-4-(2-(methoxy-d3)cyclobutoxy)pyrrolidin-2-yl)-7-(2,3-dichlorophenyl)-6-fluoro-4-methyl-1H-pyrrolo[3,2-c]quinolin-8-yl)propanenitrile], in data set [1], the Caco-2 entry was “++ (a Caco-2 value of >0.5 but ≤1)”. Further, the IC50 is not above 100 nM in data set [2] (Table H, column G12V, for compounds isolated as several atropisomers/diastereoisomers the value for the most potent isomer is quoted, read-out: KRAS G12V exchange assay IC50) and not above 100 nM in data set [3] (Table H, column G12D, for compounds isolated as several atropisomers/diastereoisomers the value for the most potent isomer is quoted, read-out: KRAS G12D exchange assay IC50).
`Cc1nc2c(F)c(-c3cccc(Cl)c3Cl)c(CCC#N)cc2c2c1cc([C@H]1C[C@H](Oc3ccn(CC(F)(F)F)n3)CN1C(=O)C1CC1)n2[C@H]1[C@H]2CN[C@@H]1C2` [Example 411]: the IC50 in data set [2] (setting [4]) and in data set [3] (setting [5]) was not above 100 nM throughout.
For `Cc1nc2c(F)c(-c3cccc(Cl)c3Cl)c(CCC#N)cc2c2c1cc([C@H]1C[C@H](OCC3(C)CC(F)(F)C3)CN1C(=O)C1CC1)n2[C@H]1[C@H]2CN[C@@H]1C2` [Example 412], the IC50 in data set [2] (setting [4]) and in data set [3] (setting [5]) was not above 100 nM in each case.
On to `Cc1nc2c(F)c(-c3cccc(Cl)c3Cl)c(CCC#N)cc2c2c1cc([C@H]1C[C@H](OCC3CCOCC3)CN1C(=O)C1CC1)n2[C@H]1[C@H]2CN[C@@H]1C2` [Example 413], for which the IC50 in data set [2] (setting [4]) and in data set [3] (setting [5]) was not above 100 nM in each case.
Take `Cc1nc2c(F)c(-c3cccc(Cl)c3Cl)c(CCC#N)cc2c2c1cc([C@H]1C[C@H](n3cc(C(F)(F)F)nn3)CN1C(=O)C1CC1)n2[C@H]1[C@H]2CN[C@@H]1C2` [Example 414]: the IC50 in data set [2] (setting [4]) and in data set [3] (setting [5]) was not above 100 nM each time.
With `Cc1nc2c(F)c(-c3cccc(Cl)c3Cl)c(CCC#N)cc2c2c1cc([C@H]1C[C@H](Oc3ccn(C)c(=O)c3)CN1C(=O)C1CC1)n2[C@H]1[C@H]2CN[C@@H]1C2` [Example 419], the IC50 in data set [2] (setting [4]) and in data set [3] (setting [5]) was not above 100 nM each time.
`Cc1nc2c(F)c(-c3cccc(Cl)c3Cl)c(CCC#N)cc2c2c1cc([C@H]1C[C@H](Oc3ccc(=O)n(C)c3)CN1C(=O)C1CC1)n2[C@H]1[C@H]2CN[C@@H]1C2` [Example 420]: the IC50 in data set [2] (setting [4]) and in data set [3] (setting [5]) was not above 100 nM throughout.
With `Cc1nc2c(F)c(-c3cccc(Cl)c3Cl)c(CCC#N)cc2c2c1cc([C@H]1C[C@H](Oc3ccnc(C4CCC4)c3)CN1C(=O)C1CC1)n2[C@H]1[C@H]2CN[C@@H]1C2` [Example 421], the 50% inhibitory concentration (IC50) in data set [2] (setting [4]) and in data set [3] (setting [5]) was not above 100 nM in each case.
For the molecule `Cc1ccnc(O[C@H]2C[C@H](c3cc4c(C)nc5c(F)c(-c6cccc(Cl)c6Cl)c(CCC#N)cc5c4n3[C@H]3[C@H]4CN[C@@H]3C4)N(C(=O)C3CC3)C2)c1` [Example 422], the IC50 in data set [2] (setting [4]) and in data set [3] (setting [5]) was not above 100 nM each time.
With `Cc1ccnc(O[C@H]2C[C@H](c3cc4c([C@@H](C)O)nc5c(F)c(-c6cccc(Cl)c6Cl)c(CCC#N)cc5c4n3[C@H]3C4CNC3C4)N(C(=O)C3CC3)C2)c1` (stereo partly drawn) [Example 424], the IC50 in data set [2] (setting [4]) and in data set [3] (setting [5]) was not above 100 nM in each case.
Turning to `C[C@@H](O)c1nc2c(F)c(-c3cccc(Cl)c3Cl)c(CCC#N)cc2c2c1cc([C@H]1C[C@H](Oc3cc(F)ccn3)CN1C(=O)C1CC1)n2[C@H]1C2CNC1C2` (stereo partly drawn) [Example 425], the IC50 in data set [2] (setting [4]) and in data set [3] (setting [5]) was not above 100 nM in each case.
In the case of `Cc1nc2c(F)c(-c3cccc(Cl)c3Cl)c(CCC#N)cc2c2c1cc([C@H]1C[C@H](n3cc(N4CCOCC4)cn3)CN1C(=O)C1CC1)n2[C@H]1[C@H]2CN[C@@H]1C2` [Example 428], the IC50 in data set [2] (setting [4]) and in data set [3] (setting [5]) was not above 100 nM throughout.
On to `Cc1nc2c(F)c(-c3cccc(Cl)c3Cl)c(CCC#N)cc2c2c1cc([C@H]1C[C@H](n3cc(C4CC4)cn3)CN1C(=O)C1CC1)n2[C@H]1[C@H]2CN[C@@H]1C2` [Example 429], for which the IC50 in data set [2] (setting [4]) and in data set [3] (setting [5]) was not above 100 nM each time.
With `COC(=O)c1ccc(-c2nnn([C@H]3C[C@H](c4cc5c(C)nc6c(F)c(-c7cccc(Cl)c7Cl)c(CCC#N)cc6c5n4[C@H]4[C@H]5CN[C@@H]4C5)N(C(=O)C4CC4)C3)n2)cc1` [Example 435], the IC50 in data set [2] (setting [4]) and in data set [3] (setting [5]) was not above 100 nM in each case.
For the molecule `Cc1nc2c(F)c(-c3cccc(Cl)c3Cl)c(CCC#N)cc2c2c1cc([C@H]1C[C@H](n3nnc(-c4cccc(OC(F)(F)F)c4)n3)CN1C(=O)C1CC1)n2[C@H]1[C@H]2CN[C@@H]1C2` [Example 436], the values for the IC50 in data set [2] (setting [4]) and in data set [3] (setting [5]) were 100 to 1000 nM and not above 100 nM, respectively.
Taken in the same sequence, the figures for `CO[C@H]1CC[C@@H](O[C@H]2C[C@H](c3cc4c(C)nc5c(F)c(-c6cccc(Cl)c6Cl)c(CCC#N)cc5c4n3[C@H]3[C@H]4CN[C@@H]3C4)N(C(=O)C3CC3)C2)C1` [Example 439] were not above 100 nM and not above 100 nM.
Taken in the same sequence, the figures for `CO[C@@H]1CC[C@@H](O[C@H]2C[C@H](c3cc4c(C)nc5c(F)c(-c6cccc(Cl)c6Cl)c(CCC#N)cc5c4n3[C@H]3[C@H]4CN[C@@H]3C4)N(C(=O)C3CC3)C2)C1` [Example 440] were not above 100 nM and not above 100 nM.
Taken in the same sequence, the figures for `COCCn1cc(O[C@H]2C[C@H](c3cc4c(C)nc5c(F)c(-c6cccc(Cl)c6Cl)c(CCC#N)cc5c4n3[C@H]3[C@H]4CN[C@@H]3C4)N(C(=O)C3CC3)C2)cn1` [Example 441] were not above 100 nM and not above 100 nM.
`Cc1nc2c(F)c(-c3cccc(Cl)c3Cl)c(CCC#N)cc2c2c1cc([C@H]1C[C@H](Oc3cnn(C(C)C)c3)CN1C(=O)C1CC1)n2[C@H]1[C@H]2CN[C@@H]1C2` [Example 442]: the IC50 in data set [2] (setting [4]) and in data set [3] (setting [5]) was not above 100 nM each time.
As for `CCOc1ncccc1O[C@H]1C[C@H](c2cc3c(C)nc4c(F)c(-c5cccc(Cl)c5Cl)c(CCC#N)cc4c3n2[C@H]2[C@H]3CN[C@@H]2C3)N(C(=O)C2CC2)C1` [Example 443], the IC50 in data set [2] (setting [4]) and in data set [3] (setting [5]) was not above 100 nM each time.
Consider `Cc1nc2c(F)c(-c3cccc(Cl)c3Cl)c(CCC#N)cc2c2c1cc([C@H]1C[C@H](Oc3cccnc3OC(C)C)CN1C(=O)C1CC1)n2[C@H]1[C@H]2CN[C@@H]1C2` [Example 444], for which the IC50 in data set [2] (setting [4]) and in data set [3] (setting [5]) was not above 100 nM throughout.
For `Cc1nc2c(F)c(-c3cccc(Cl)c3Cl)c(CCC#N)cc2c2c1cc([C@H]1C[C@H](OCC3CC(F)(F)C3)CN1C(=O)C1CC1)n2[C@H]1[C@H]2CN[C@@H]1C2` [Example 445], the IC50 in data set [2] (setting [4]) and in data set [3] (setting [5]) was not above 100 nM in each case.
Regarding `Cc1nc2c(F)c(-c3cccc(Cl)c3Cl)c(CCC#N)cc2c2c1cc([C@H]1C[C@H](Oc3cccnc3OCC(F)(F)F)CN1C(=O)C1CC1)n2[C@H]1[C@H]2CN[C@@H]1C2` [Example 446], the IC50 in data set [2] (setting [4]) and in data set [3] (setting [5]) was not above 100 nM each time.
On to `COc1ncc(F)cc1O[C@H]1C[C@H](c2cc3c(C)nc4c(F)c(-c5cccc(Cl)c5Cl)c(CCC#N)cc4c3n2[C@H]2[C@H]3CN[C@@H]2C3)N(C(=O)C2CC2)C1` [Example 447], for which the IC50 in data set [2] (setting [4]) and in data set [3] (setting [5]) was not above 100 nM in each case.
In the case of `COc1ncc(Cl)cc1O[C@H]1C[C@H](c2cc3c(C)nc4c(F)c(-c5cccc(Cl)c5Cl)c(CCC#N)cc4c3n2[C@H]2[C@H]3CN[C@@H]2C3)N(C(=O)C2CC2)C1` [Example 448], the IC50 in data set [2] (setting [4]) and in data set [3] (setting [5]) was not above 100 nM each time.
Regarding `Cc1nc2c(F)c(-c3cccc(Cl)c3Cl)c(CCC#N)cc2c2c1cc([C@H]1C[C@H](OC[C@@H]3CCCN3)CN1C(=O)C1CC1)n2[C@H]1[C@H]2CN[C@@H]1C2` [Example 449], the IC50 in data set [2] (setting [4]) and in data set [3] (setting [5]) was not above 100 nM throughout.
For the molecule `COc1ncc(Br)cc1O[C@H]1C[C@H](c2cc3c(C)nc4c(F)c(-c5cccc(Cl)c5Cl)c(CCC#N)cc4c3n2[C@H]2[C@H]3CN[C@@H]2C3)N(C(=O)C2CC2)C1` [Example 450], the IC50 in data set [2] (setting [4]) and in data set [3] (setting [5]) was not above 100 nM each time.
In the case of `COc1ncc(C(F)(F)F)cc1O[C@H]1C[C@H](c2cc3c(C)nc4c(F)c(-c5cccc(Cl)c5Cl)c(CCC#N)cc4c3n2[C@H]2[C@H]3CN[C@@H]2C3)N(C(=O)C2CC2)C1` [Example 451], the IC50 in data set [2] (setting [4]) and in data set [3] (setting [5]) was not above 100 nM in each case.
